Measured values as given in US8741836B2, “Polypeptides” (Novo Nordisk A/S, priority 2011, dated 2014).
Starred links: 1 amine or outer side, 2 acyl side, 3 side chain; linkers in the order of their positions; H or OH if unused. Positions of bridges follow the written chain, without caps; N, C: chain ends. Residues, ends and D or L forms follow the SMILES beside them. *: point of attachment. C20 diacid = O=C(O)CCCCCCCCCCCCCCCCCCC(=O)*; γGlu = O=C(O)[C@H](CCC(=O)[*:2])N[*:1]

Experiment: Assay (III) ThT fibrillation assay for physical stability
Format: physicochemical
Conditions: pH 4.0, ThT fibrillation assay
Source text: Assay (III)—ThT Fibrillation Assays for the Assessment of Physical Stability of Protein formulations Low physical stability of a polypeptide may lead to amyloid fibril formation, which is observed as well-ordered, thread-like macromolecular structures in the sample eventually resulting in gel formation. This has traditionally been measured by visual inspection of the sample. However, that kind of measurement is very subjective and depending on the observer. Therefore, the application of a small molecule indicator probe is much more advantageous. Thioflavin T (ThT) is such a probe and has a distinct fluorescence signature when binding to fibrils [Naiki et al. (1989) Anal. Biochem. 177, 244-249; LeVine (1999) Methods. Enzymol. […], 274-284]. The time course for fibril formation can be described by a sigmoidal curve with the following expression [Nielsen et al. (2001) Biochemistry 40, 6036-6046]: [formula] Here, F is the ThT fluorescence at the time t. The constant t0 is the time needed to reach 50% of maximum fluorescence. […] Few of those intermediates nucleate to form a template onto which further intermediates may assembly and the fibrillation proceeds. The lag-time corresponds to the interval in which the critical mass of nucleus is built up and the apparent rate constant is the rate with which the fibril itself is formed. Sample Preparation Samples were prepared freshly before each assay. Each sample composition is described in each example. The pH of the sample was adjusted to the desired value using appropriate amounts of concentrated NaOH and HClO4 or HCl. Thioflavin T was added to the samples from a stock solution in H2O to a final concentration of 1 μM. Sample aliquots of 200 μl were placed in a 96 well microtiter plate (Packard OptiPlate™-96, white polystyrene). Usually, four or eight replica of each sample (corresponding to one test condition) were placed in one column of wells. The plate was sealed with Scotch Pad (Qiagen). Incubation and Fluorescence Measurement Incubation at given temperature, shaking and measurement of the ThT fluorescence emission were done in a Fluoroskan Ascent FL fluorescence platereader or Varioskan platereader (Thermo Labsystems). The temperature was adjusted to 37° C. The orbital shaking was adjusted to 960 rpm with an amplitude of 1 mm in all the presented data. Fluorescence measurement was done using excitation through a 444 nm filter and measurement of emission through a 485 nm filter. Each run was initiated by incubating the plate at the assay temperature for 10 min. The plate was measured every 20 minutes for a desired period of time. Between each measurement, the plate was shaken and heated as described. Data Handling The measurement points were saved in Microsoft Excel format for further processing and curve drawing and fitting was performed using GraphPad Prism. The background emission from ThT in the absence of fibrils was negligible. The data points are typically a mean of four or eight samples and shown with standard deviation error bars. Only data obtained in the same experiment (i.e. samples on the same plate) are presented in the same graph ensuring a relative measure of fibrillation between experiments. The data set may be fitted to Eq. (1). However, since full sigmodial curves in this case are not always achieved during the measurement time, the degree of fibrillation is expressed as ThT fluorescence tabulated as the mean of the samples and shown with the standard deviation at various time points. Measurement of Initial and Final Concentrations The polypeptide concentration in each of the tested formulations were measured both before application in the ThT fibrillation assay (“Initial”) and after completion of the ThT fibrillation (“After ThT assay”). Concentrations were determined by reverse HPLC methods using a pramlintide standard as a reference. Before measurement after completion 150 μl was collected from each of the replica and transferred to an Eppendorf tube. […]

ThT pH 4.0 lag time	SMILES
>45 h	CC[C@H](C)[C@H](NC(=O)[C@@H]1CCCN1C(=O)CNC(=O)[C@H](Cc1ccccc1)NC(=O)[C@H](CC(N)=O)NC(=O)[C@H](CC(N)=O)NC(=O)[C@H](CO)NC(=O)[C@H](CO)NC(=O)[C@H](Cc1c[nH]cn1)NC(=O)[C@H](Cc1c[nH]cn1)NC(=O)[C@H](CC(C)C)NC(=O)[C@H](Cc1ccccc1)NC(=O)[C@H](CCC(=O)O)NC(=O)[C@H](C)NC(=O)[C@H](CC(C)C)NC(=O)[C@H](CCCNC(=N)N)NC(=O)[C@H](CCC(N)=O)NC(=O)[C@@H](NC(=O)[C@H](C)NC(=O)[C@@H]1CSSC[C@H](NC(=O)[C@H](CCCCN)NC(=O)CC[C@H](NC(=O)CCCCCCCCCCCCCCCCCCC(=O)O)C(=O)O)C(=O)N[C@@H](CC(N)=O)C(=O)N[C@@H]([C@@H](C)O)C(=O)N[C@@H](C)C(=O)N[C@@H]([C@@H](C)O)C(=O)N1)[C@@H](C)O)C(=O)N[C@@H](CC(C)C)C(=O)N1CCC[C@H]1C(=O)N1CCC[C@H]1C(=O)N[C@H](C(=O)N[C@@H](CC(N)=O)C(=O)N[C@H](C(=O)NCC(=O)N[C@@H](CO)C(=O)N[C@@H](CC(N)=O)C(=O)N[C@@H](Cc1c[nH]cn1)C(=O)N[C@@H](Cc1ccc(O)cc1)C(N)=O)C(C)C)[C@@H](C)O [Example 114, N-alpha-[(S)-4-Carboxy-4-(19-carboxynonadecanoylamino)butyryl]-[Glu14,His17,His36]-pramlintide] ({C20 diacid-γGlu}-KCNTATCATQRLAEFLHHSSNNFGPILPPTNVGSNHY-NH2; disulfide 2-7 (inferred))
26 h	CC[C@H](C)[C@H](NC(=O)[C@@H]1CCCN1C(=O)CNC(=O)[C@H](Cc1ccccc1)NC(=O)[C@H](CC(N)=O)NC(=O)[C@H](CC(N)=O)NC(=O)[C@H](CO)NC(=O)[C@H](CO)NC(=O)[C@H](Cc1c[nH]cn1)NC(=O)[C@H](Cc1c[nH]cn1)NC(=O)[C@H](CC(C)C)NC(=O)[C@H](Cc1ccccc1)NC(=O)[C@H](CCC(=O)O)NC(=O)[C@H](C)NC(=O)[C@H](CC(C)C)NC(=O)[C@H](CCCNC(=N)N)NC(=O)[C@H](CCC(N)=O)NC(=O)[C@@H](NC(=O)[C@H](C)NC(=O)[C@@H]1CSSC[C@H](NC(=O)CNC(=O)CC[C@H](NC(=O)CCCCCCCCCCCCCCCCCCC(=O)O)C(=O)O)C(=O)N[C@@H](CC(N)=O)C(=O)N[C@@H]([C@@H](C)O)C(=O)N[C@@H](C)C(=O)N[C@@H]([C@@H](C)O)C(=O)N1)[C@@H](C)O)C(=O)N[C@@H](CC(C)C)C(=O)N1CCC[C@H]1C(=O)N1CCC[C@H]1C(=O)N[C@H](C(=O)N[C@@H](CC(N)=O)C(=O)N[C@H](C(=O)NCC(=O)N[C@@H](CO)C(=O)N[C@@H](Cc1c[nH]cn1)C(=O)N[C@H](C(=O)N[C@@H](Cc1ccc(O)cc1)C(N)=O)[C@@H](C)O)C(C)C)[C@@H](C)O [Example 105, N-alpha-[(S)-4-Carboxy-4-(19-carboxynonadecanoylamino)butyryl]-[Gly1,Glu14,His17,His35]-pramlintide] ({C20 diacid-γGlu}-GCNTATCATQRLAEFLHHSSNNFGPILPPTNVGSHTY-NH2; disulfide 2-7)
>45 h	CC[C@H](C)[C@H](NC(=O)[C@@H]1CCCN1C(=O)CNC(=O)[C@H](Cc1ccccc1)NC(=O)[C@H](CC(N)=O)NC(=O)[C@H](CC(N)=O)NC(=O)[C@H](CO)NC(=O)[C@H](CO)NC(=O)[C@H](Cc1c[nH]cn1)NC(=O)[C@H](Cc1c[nH]cn1)NC(=O)[C@H](CC(C)C)NC(=O)[C@H](Cc1ccccc1)NC(=O)[C@H](CCC(=O)O)NC(=O)[C@H](C)NC(=O)[C@H](CC(C)C)NC(=O)[C@H](CCCNC(=N)N)NC(=O)[C@H](CCC(N)=O)NC(=O)[C@@H](NC(=O)[C@H](C)NC(=O)[C@@H]1CSSC[C@H](NC(=O)[C@H](CCCCN)NC(=O)CC[C@H](NC(=O)CCCCCCCCCCCCCCCCCCC(=O)O)C(=O)O)C(=O)N[C@@H](CC(N)=O)C(=O)N[C@@H]([C@@H](C)O)C(=O)N[C@@H](C)C(=O)N[C@@H]([C@@H](C)O)C(=O)N1)[C@@H](C)O)C(=O)N[C@@H](CC(C)C)C(=O)N1CCC[C@H]1C(=O)N1CCC[C@H]1C(=O)N[C@H](C(=O)N[C@@H](CC(N)=O)C(=O)N[C@H](C(=O)NCC(=O)N[C@@H](CO)C(=O)N[C@@H](CCCNC(=N)N)C(=O)N[C@H](C(=O)N[C@@H](Cc1ccc(O)cc1)C(N)=O)[C@@H](C)O)C(C)C)[C@@H](C)O [Example 112, N-alpha-[(S)-4-Carboxy-4-(19-carboxynonadecanoylamino)butyryl]-[Glu14,His17,Arg35]-pramlintide] ({C20 diacid-γGlu}-KCNTATCATQRLAEFLHHSSNNFGPILPPTNVGSRTY-NH2; disulfide 2-7 (inferred))
>45 h	CC[C@H](C)[C@H](NC(=O)[C@@H]1CCCN1C(=O)CNC(=O)[C@H](Cc1ccccc1)NC(=O)[C@H](CC(N)=O)NC(=O)[C@H](CC(N)=O)NC(=O)[C@H](CO)NC(=O)[C@H](CO)NC(=O)[C@H](Cc1c[nH]cn1)NC(=O)[C@H](Cc1c[nH]cn1)NC(=O)[C@H](CC(C)C)NC(=O)[C@H](Cc1ccccc1)NC(=O)[C@H](CCC(=O)O)NC(=O)[C@H](C)NC(=O)[C@H](CC(C)C)NC(=O)[C@H](CCCNC(=N)N)NC(=O)[C@H](CCC(N)=O)NC(=O)[C@@H](NC(=O)[C@H](C)NC(=O)[C@@H]1CSSC[C@H](NC(=O)[C@H](CCCNC(=N)N)NC(=O)CC[C@H](NC(=O)CCCCCCCCCCCCCCCCCCC(=O)O)C(=O)O)C(=O)N[C@@H](CC(N)=O)C(=O)N[C@@H]([C@@H](C)O)C(=O)N[C@@H](C)C(=O)N[C@@H]([C@@H](C)O)C(=O)N1)[C@@H](C)O)C(=O)N[C@@H](CC(C)C)C(=O)N1CCC[C@H]1C(=O)N1CCC[C@H]1C(=O)N[C@H](C(=O)N[C@@H](CC(N)=O)C(=O)N[C@H](C(=O)NCC(=O)N[C@@H](CO)C(=O)N[C@@H](Cc1c[nH]cn1)C(=O)N[C@H](C(=O)N[C@@H](Cc1ccc(O)cc1)C(N)=O)[C@@H](C)O)C(C)C)[C@@H](C)O [Example 95, N-alpha-[(S)-4-Carboxy-4-(19-carboxynonadecanoylamino)butyryl]-[Arg1,Glu14,His17,His35]-pramlintide] ({C20 diacid-γGlu}-RCNTATCATQRLAEFLHHSSNNFGPILPPTNVGSHTY-NH2; disulfide 2-7 (inferred))
